Experimental data published in patent publication US5006560A, “Use of GABA-B selective agonists as anti-tussive agents” (Schering Corporation, priority 1989, dated 1991).

Assays:
capsaicin-induced cough = experiment: Capsaicin-induced cough in guinea pigs; format: in vivo, guinea pig; conditions: for ED50: Cavia porcellus, sc, capsaicin (0.3 mM) aerosol, guinea pigs, subcutaneous, read-out: ED50, reduction of cough frequency
Procedure: (§1) Unanesthetized male Dunkin Hartley guinea pigs (250-600 g) are placed into transparent plexiglas chambers and exposed to aerosols of capsaicin (300 μM), citric acid (0.55M), or their vehicles at an airflow of 4 L/min. Citric acid is dissolved in 0.9% saline vehicle and capsaicin is dissolved in 10% ethanol, 90% saline vehicle. The volume of solution aerosolized every minute is approximately 0.4 ml. The animals are first exposed to a vehicle aerosol for 4 minutes and then are exposed to citric acid or capsaicin aerosol for an additional 4 minutes. Coughing is detected by a microphone that is placed in the chamber and connected to an audio monitor and chart recorder. Coughs produced deflections on the chart paper which are later counted to determine a cough frequency. Test compounds are administered subcutaneously prior to exposure to citric acid or capsaicin. […] All statistics are expressed relative to control values (unpaired t-test). The results are shown in FIGS. 1A, 1B, 1C and 1D and are discussed below.
(§2) In FIGS. 1C and 1D, 3-APPA or vehicle was administered 45 minutes prior to data collection.
(§3) Guinea pigs were exposed to citric acid at a concentration of 0.55M. This dose of citric acid produced cough frequencies of 10-13 per exposure. The dose of capsaicin used was 0.3 mM and this dose produced cough frequencies of 7-9 per exposure. These doses produced consistent responses and were well tolerated by the animals. Larger doses (up to 2M for citric acid and 3 mM for capsaicin) produced distress to the animals. Lower doses (to 0.2M for citric acid and 0.03 mM for capsaicin) produced inconsistent cough responses.

[1] = test system: citric acid-induced cough; experiment: Citric acid-induced cough in guinea pigs; format: in vivo, guinea pig; conditions: for ED50: Cavia porcellus, sc, citric acid (0.55M) aerosol, guinea pigs, subcutaneous, read-out: ED50, reduction of cough frequency
Procedure: as §1, §2, §3

[2] = test system: mechanically-induced cough; experiment: Mechanically-induced cough in cats (probing intrathoracic trachea); format: in vivo, cat; conditions: mechanical stimulus
Procedure: (§4) Cats (2.2-3.5 kg) are anesthetized with sodium pentobarbital (35 mg/kg, i.p.). Supplemental anesthetic (5 mg/kg, i.v.) is administered as required. Cannulas are placed in a femoral vein and artery for administering drugs and measuring arterial blood pressure, respectively. A tracheostomy is performed.
(§5) Electromyograms (EMGs) of respiratory muscle activity are recorded via bipolar silver wire electrodes placed in the diaphragm and rectus abdominus muscles by the technique of Basmajian and Stecko (1962). The EMGs are amplified (1000-2000×), filtered (500 Hz-10 KHz), monitored on an oscilloscope, and integrated with a "Leaky" RC circuit (100 ms time constant).
(§6) These stimuli only elicit coughs, apneas, apneusis, or augmented breaths (sighs).
(§7) Coughing is produced by coordinated bursts of activity in inspiratory and expiratory muscles. We define a cough as a burst of activity at least 50% greater than control levels in the diaphragm (inspiratory muscle) immediately followed by or coincident with a burst of activity in the rectus abdominus muscle (expiratory muscle). These criteria eliminate apneas or apneusis (no inspiratory or expiratory bursts) and augmented breaths (no expiratory muscle activity). Test compounds are administered intravenously to determine their effects on mechanically (probe) and electrically (SLN) induced cough. […]

[3] = test system: electrically-induced cough; experiment: Electrically-induced cough in cats (superior laryngeal nerve stimulation); format: in vivo, cat; conditions: electrical stimulus
Procedure: as §4, §5, §6, §7

[4] = 3-APPA 3 mg/kg i.v., baclofen 0.7 mg/kg i.v.

Compound	ED50 (capsaicin-induced cough) [mg/kg]	reduction in cough frequency (capsaicin-induced cough; capsaicin model, FIG. 1B, 1 hour after s.c. treatment)	ED50 [1] [mg/kg]	reduction in cough frequency ([1]; citric acid model, FIG. 1A, 1 hour after s.c. treatment)	inhibitory effect on coughing ([2]; cumulative i.v. doses, 5 minutes after injection, FIG. 3A)	inhibitory effect on coughing ([3]; cumulative i.v. doses, 5 minutes after injection, FIG. 3B)	effect of prior treatment with 3-APPA on antitussive effect of baclofen (capsaicin-induced cough; capsaicin model, 3-APPA 10 mg/kg s.c. before baclofen 1.0 mg/kg s.c., FIG. 1D)	effect of prior treatment with 3-APPA on antitussive effect of baclofen ([1]; citric acid model, 3-APPA 10 mg/kg s.c. before baclofen 1.0 mg/kg s.c., FIG. 1C)	effect of 3-APPA on antitussive response to baclofen [2, 4]	effect of 3-APPA on antitussive response to baclofen [3, 4]
NCC(CC(=O)O)c1ccc(Cl)cc1 (racemic) [baclofen]	~0.7	dose-dependent reduction in cough frequency	~0.7	dose-dependent reduction in cough frequency	dose-dependent	dose-dependent	–	–	–	–
NCCCP(=O)(O)O [3-APPA, 3-aminopropylphosphonic acid]	–	–	–	–	–	–	attenuated	attenuated	attenuated these responses	attenuated these responses
COc1ccc2c3c1O[C@H]1[C@@H](O)C=C[C@H]4[C@@H](C2)N(C)CC[C@@]341 [Codeine]	10	–	30	–	–	–	–	–	–	–
